“And” between values parts separate entries of the source, which are not always exact repeats. Equal entries are not always repeated. Where two headings read alike, the source gives them in different places.
Assays:
P. falciparum Dd2^Dd2 = tested on: P. falciparum Dd2^Dd2; parameters: key to Phenotype, Dd2^Dd2: S: sensitive; R: resistant; conditions: cited from earlier work
[1] = tested on: Hz formation in ABS P. falciparum 3D7 parasites; test: Cellular heme fractionation assay; format: cell-based, Plasmodium falciparum
Experimental: A heme fractionation assay was used to measure the inhibition of Hz formation in cultured ABS P. falciparum 3D7 parasites as previously described. […] Late trophozoites were harvested after 32 hours of incubation by lysing RBCs with 0.05% saponin followed by multiple washes with 1 × PBS (pH 7.5) to remove any residual traces of hemoglobin. The parasite pellet was resuspended in PBS and the total number of trophozoites isolated was quantified using flow cytometry. Contents of the trophozoite pellet were released by hypotonic lysis and sonication. After centrifugation, treatments with HEPES buffer (pH 7.4), sodium dodecyl sulfate, pyridine, and NaOH, allowed us to separate the fractions corresponding to the different heme species of interest. A microplate reader was employed to measure the UV-visible spectrum of each heme fraction as a Fe(III)heme-pyridine complex. Fractions of undigested hemoglobin, “free” heme, and Hz were quantified using a heme standard curve based on the mass of each heme-Fe species per mature trophozoite (fg/cell), obtained by dividing the total amount of each heme species by the corresponding number of parasites in that fraction as determined by flow cytometry. Statistical comparisons and analyses for trends employed Students’ t-tests (GraphPad Prism version 9).

[2] = tested on: P. berghei ookinete formation; test: In vitro inhibition of ookinete formation (nLuc conversion assay), 24 h; format: cell-based, Plasmodium berghei; conditions: Plasmodium berghei; for activity at 10 µM: read-out: % Inhibition of ookinete conversion, 10 uM; for activity at 25 µM: read-out: % Inhibition of ookinete conversion, 25 uM; for activity at 100 µM: read-out: % Inhibition of ookinete conversion, 100 uM
Experimental: To measure the inhibition of gamete conversion into ookinetes, a mutant luciferase-expressing P. berghei line (nLuc) was intraperitoneally injected into BALB/c mice. After 3–4 days, gametocyte-carrying blood samples were collected. In vitro compound testing was carried out by exposing 4 μL of infected blood mixed with 80 μL of culture medium (RPMI-1640 supplemented with 25 mM HEPES, 50 mg/L hypoxanthine, and 1% penicillin/streptomycin/neomycin at pH 8.3) to a range of drug concentrations for 24 hours at 21°C. Following the incubation, 20 μL of nLuc substrate (Nano-Glo Luciferase Assay System, Promega) was added to each well, and luminescence was measured in a luminometer. Increased light emission correlated with nLuc production and subsequent luciferase activity due to in vitro fertilization and ookinete conversion, as luciferase expression in this parasite line is regulated by the CTRP promoter that is ookinete-specific. Conversion inhibition was calculated as the percentage of luciferase activity of drug-exposed wells relative to untreated ones, from which IC50 values were interpolated.

[3] = 0.5x IC50, 32 h, single replicates
[4] = 0.5–3.0 × IC50 vs untreated control
[5] = 1x IC50, 32 h, single replicates
[6] = 2x IC50, 32 h, single replicates
[7] = 2.5x IC50, 32 h, single replicates
[8] = 3x IC50, 32 h, single replicates
[9] = single replicates, Control = 100

For `CCN(CC)CCCC(C)Nc1ccnc2cc(Cl)ccc12` (stereo not drawn) [CQ, chloroquine], the IC50 (P. falciparum Dd2^Dd2; Dd2Dd2, mean ± SEM, ref 1 (Ross et al., 2018)) is given as 156 ± 9.3 nM, the IC90 (P. falciparum Dd2^Dd2; Dd2Dd2, mean ± SEM, ref 2 (Dhingra et al., 2019)) is given as 214 ± 7.4 nM and the “Phenotype, Dd2^Dd2” value (P. falciparum Dd2^Dd2; ref [19],[20],[51]) is given as “R”. For the same compound, the “%Hb” value ([1]; 0.5x IC50, 32 h, Mean) was 3.19%, the “%Hemozoin” value ([1]; 0.5x IC50, 32 h, Mean) was 88.03% and the “Hb Fe (fg/troph)” value ([1]; 0.5x IC50, 32 h, Mean) was 1.79 fg/troph. The “Heme Fe (fg/troph)” value ([1]; 0.5x IC50, 32 h, Mean) was 4.89 fg/troph, the “Hemozoin Fe (fg/troph)” value ([1]; 0.5x IC50, 32 h, Mean) was 48.61 fg/troph and the “Total Fe (fg/troph)” value ([1]; 0.5x IC50, 32 h, Mean) was 57.03 fg/troph. The “%Hb” value [1, 3] was 3.1577% and 3.5151% and 3.0401% and 3.0419%, the “%Heme” value [1, 3] was 10.1984% and 8.3472% and 8.0733% and 8.4973% and the “%Hemozoin” value [1, 3] was 86.6439% and 88.1377% and 88.8867% and 88.4608%. For the same compound, the “Hb Fe (fg/troph)” value [1, 3] was 1.6883 fg/troph and 1.9552 fg/troph and 1.7265 fg/troph and 1.8935 fg/troph, the “Heme Fe (fg/troph)” value [1, 3] was 5.4527 fg/troph and 4.6429 fg/troph and 4.5850 fg/troph and 5.2894 fg/troph and the “Hemozoin Fe (fg/troph)” value [1, 3] was 46.3251 fg/troph and 49.0239 fg/troph and 50.4811 fg/troph and 55.0658 fg/troph. The “Total Fe (fg/troph)” value [1, 3] was 53.47 fg/troph and 55.62 fg/troph and 56.79 fg/troph and 62.25 fg/troph, the “effect on Hz levels” value [1, 4] was “Hz levels only decreased significantly from 2 × IC50” and the “effect on undigested Hb” value [1, 4] was “significant at 2.5 × IC50 of CQ only”. The “effect on “free” heme” value [1, 4] was “significant increase in “free” heme starting at 0.5 × IC50”, the “%Hb” value ([1]; 1x IC50, 32 h, Mean) was 3.14% and the “%Hemozoin” value ([1]; 1x IC50, 32 h, Mean) was 88.13%. The “Hb Fe (fg/troph)” value ([1]; 1x IC50, 32 h, Mean) was 1.74 fg/troph, the “Heme Fe (fg/troph)” value ([1]; 1x IC50, 32 h, Mean) was 5.05 fg/troph and the “Hemozoin Fe (fg/troph)” value ([1]; 1x IC50, 32 h, Mean) was 48.59 fg/troph. For the same compound, the “Total Fe (fg/troph)” value ([1]; 1x IC50, 32 h, Mean) was 56.08 fg/troph, the “%Hb” value [1, 5] was 2.4393% and 3.8543% and 3.1547% and 3.1175% and the “%Heme” value [1, 5] was 10.2450% and 7.2686% and 7.4306%. For the same compound, the “%Hemozoin” value [1, 5] was 87.3158% and 86.1923% and 89.5767% and 89.4519%, the “Hb Fe (fg/troph)” value [1, 5] was 1.3251 fg/troph and 2.0733 fg/troph and 1.8303 fg/troph and 1.8137 fg/troph and the “Heme Fe (fg/troph)” value [1, 5] was 5.5654 fg/troph and 5.3541 fg/troph and 4.2171 fg/troph and 4.3229 fg/troph. The “Hemozoin Fe (fg/troph)” value [1, 5] was 47.4331 fg/troph and 46.3642 fg/troph and 51.9709 fg/troph and 52.0405 fg/troph, the “Total Fe (fg/troph)” value [1, 5] was 54.32 fg/troph and 53.79 fg/troph and 58.02 fg/troph and 58.18 fg/troph and the “%Hb” value ([1]; 2x IC50, 32 h, Mean) was 3.51%. For the same compound, the “%Hemozoin” value ([1]; 2x IC50, 32 h, Mean) was 87.00%, the “Hb Fe (fg/troph)” value ([1]; 2x IC50, 32 h, Mean) was 1.98 fg/troph and the “Heme Fe (fg/troph)” value ([1]; 2x IC50, 32 h, Mean) was 5.58 fg/troph. The “Hemozoin Fe (fg/troph)” value ([1]; 2x IC50, 32 h, Mean) was 48.43 fg/troph, the “Total Fe (fg/troph)” value ([1]; 2x IC50, 32 h, Mean) was 56.59 fg/troph and the “%Hb” value [1, 6] was 3.5841% and 3.0885% and 3.9396% and 3.4358%. For the same compound, the “%Heme” value [1, 6] was 10.5037% and 10.6360% and 8.0922%, the “%Hemozoin” value [1, 6] was 85.9123% and 86.2755% and 87.3313% and 88.4720% and the “Hb Fe (fg/troph)” value [1, 6] was 2.0351 fg/troph and 1.7333 fg/troph and 2.1697 fg/troph and 2.0058 fg/troph. For the same compound, the “Heme Fe (fg/troph)” value [1, 6] was 5.9641 fg/troph and 5.9691 fg/troph and 4.8074 fg/troph and 4.7243 fg/troph, the “Hemozoin Fe (fg/troph)” value [1, 6] was 48.7818 fg/troph and 48.4187 fg/troph and 48.0959 fg/troph and 51.6502 fg/troph and the “Total Fe (fg/troph)” value [1, 6] was 56.78 fg/troph and 56.12 fg/troph and 55.07 fg/troph and 58.38 fg/troph. The “%Hb” value ([1]; 2.5x IC50, 32 h, Mean) was 4.73%, the “%Heme” value ([1]; 2.5x IC50, 32 h, Mean) was 10.26% and the “%Hemozoin” value ([1]; 2.5x IC50, 32 h, Mean) was 85.01%. For the same compound, the “Hb Fe (fg/troph)” value ([1]; 2.5x IC50, 32 h, Mean) was 2.72 fg/troph, the “Heme Fe (fg/troph)” value ([1]; 2.5x IC50, 32 h, Mean) was 5.95 fg/troph and the “Hemozoin Fe (fg/troph)” value ([1]; 2.5x IC50, 32 h, Mean) was 47.56 fg/troph. The “Total Fe (fg/troph)” value ([1]; 2.5x IC50, 32 h, Mean) was 56.58 fg/troph, the “%Hb” value [1, 7] was 4.8862% and 4.8721% and 4.7430% and 4.4317% and the “%Heme” value [1, 7] was 10.8743% and 11.0956%. For the same compound, the “%Hemozoin” value [1, 7] was 84.2395% and 85.3413% and 84.1614% and 86.2810%, the “Hb Fe (fg/troph)” value [1, 7] was 2.8007 fg/troph and 2.7933 fg/troph and 2.5619 fg/troph and 2.5547 fg/troph and the “Heme Fe (fg/troph)” value [1, 7] was 6.2331 fg/troph and 5.6110 fg/troph and 5.9933 fg/troph and 5.3538 fg/troph. For the same compound, the “Hemozoin Fe (fg/troph)” value [1, 7] was 48.2856 fg/troph and 48.9290 fg/troph and 45.4601 fg/troph and 49.7378 fg/troph, the “Total Fe (fg/troph)” value [1, 7] was 57.32 fg/troph and 57.33 fg/troph and 54.02 fg/troph and 57.65 fg/troph and the “%Hb” value ([1]; 3x IC50, 32 h, Mean) was 3.75%. The “%Heme” value ([1]; 3x IC50, 32 h, Mean) was 14.98%, the “%Hemozoin” value ([1]; 3x IC50, 32 h, Mean) was 81.27% and the “Hb Fe (fg/troph)” value ([1]; 3x IC50, 32 h, Mean) was 2.01 fg/troph. For the same compound, the “Heme Fe (fg/troph)” value ([1]; 3x IC50, 32 h, Mean) was 8.01 fg/troph, the “Hemozoin Fe (fg/troph)” value ([1]; 3x IC50, 32 h, Mean) was 43.26 fg/troph and the “Total Fe (fg/troph)” value ([1]; 3x IC50, 32 h, Mean) was 56.94 fg/troph. For the same compound, the “%Hb” value [1, 8] was 2.5119% and 4.3346% and 4.4230% and 3.7332%, the “%Heme” value [1, 8] was 15.7024% and 13.7857% and 15.6412% and 14.7736% and the “%Hemozoin” value [1, 8] was 81.7857% and 81.8796% and 79.9358% and 81.4933%. The “Hb Fe (fg/troph)” value [1, 8] was 1.3141 fg/troph and 2.3188 fg/troph and 2.3892 fg/troph and 2.5358 fg/troph, the “Heme Fe (fg/troph)” value [1, 8] was 8.2149 fg/troph and 7.3747 fg/troph and 8.4490 fg/troph and 10.0350 fg/troph and the “Hemozoin Fe (fg/troph)” value [1, 8] was 42.7874 fg/troph and 43.8015 fg/troph and 43.1792 fg/troph and 55.3544 fg/troph. The “Total Fe (fg/troph)” value [1, 8] was 52.32 fg/troph and 53.50 fg/troph and 54.02 fg/troph and 67.93 fg/troph, the activity at 10 µM ([2]; Mean, Control mean 96.63) was 43.2% and the activity at 10 µM [2, 9] was 38.1%. The activity at 25 µM ([2]; Mean, Control mean 96.63) was 14.4%, the activity at 25 µM [2, 9] was 12.7% and the activity at 50 µM ([2]; read-out: % Inhibition of ookinete conversion, 50 uM, Mean, Control mean 96.63) was 0.49%. The activity at 100 µM ([2]; Mean, Control mean 96.63) was 0.22%, the activity at 100 µM [2, 9] was 0.2% and the inhibition at 10 µM ([2]; read-out: inhibition of zygote conversion into ookinetes) was 56.7%.

— PMC11521309, “A novel 4-aminoquinoline chemotype with multistage antimalarial activity and lack of cross-resistance with PfCRT and PfMDR1 mutants” (PLOS Pathogens, 2024)
